Experimental data reported in ChEMBL document CHEMBL5291721, “A preclinical secondary pharmacology resource illuminates target-adverse drug reaction associations of marketed drugs” (Nat Commun, 2023).

Experiments:
[1] = target: Gamma-aminobutyric acid receptor subunit alpha-1/alpha-2/beta-2/gamma-2 (Homo sapiens, UniProt P14867+P18507+P47869+P47870); format: functional, cell-based
[2] = target: T1, Glucocorticoid receptor (Homo sapiens, UniProt P04150)
T1 sequence (P04150 whole entry): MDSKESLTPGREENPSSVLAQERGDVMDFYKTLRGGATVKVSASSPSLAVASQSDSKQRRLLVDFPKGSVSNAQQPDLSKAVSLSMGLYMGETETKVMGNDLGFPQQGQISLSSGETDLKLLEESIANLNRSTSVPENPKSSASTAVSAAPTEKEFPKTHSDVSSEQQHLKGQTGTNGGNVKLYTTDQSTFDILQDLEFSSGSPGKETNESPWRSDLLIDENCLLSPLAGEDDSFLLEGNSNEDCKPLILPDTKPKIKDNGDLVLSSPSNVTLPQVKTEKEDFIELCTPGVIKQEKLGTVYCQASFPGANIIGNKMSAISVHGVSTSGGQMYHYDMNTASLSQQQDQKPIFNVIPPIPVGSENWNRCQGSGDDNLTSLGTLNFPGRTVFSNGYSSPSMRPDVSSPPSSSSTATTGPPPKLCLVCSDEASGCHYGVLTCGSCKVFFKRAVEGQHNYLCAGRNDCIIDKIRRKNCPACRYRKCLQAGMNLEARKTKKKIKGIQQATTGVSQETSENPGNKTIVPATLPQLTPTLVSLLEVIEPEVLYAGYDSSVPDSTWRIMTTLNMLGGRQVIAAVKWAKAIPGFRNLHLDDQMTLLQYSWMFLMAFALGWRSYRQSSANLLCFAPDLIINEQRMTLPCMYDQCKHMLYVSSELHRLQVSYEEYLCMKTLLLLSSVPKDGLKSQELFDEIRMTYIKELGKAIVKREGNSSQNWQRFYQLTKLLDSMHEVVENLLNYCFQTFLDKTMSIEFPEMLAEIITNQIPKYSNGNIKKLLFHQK

[3] = target: Mu-type opioid receptor (Homo sapiens, UniProt P35372); test: biochemical; format: functional
[4] = target: T2, Alpha-2A adrenergic receptor (Homo sapiens, UniProt P08913)
T2 sequence (P08913 whole entry): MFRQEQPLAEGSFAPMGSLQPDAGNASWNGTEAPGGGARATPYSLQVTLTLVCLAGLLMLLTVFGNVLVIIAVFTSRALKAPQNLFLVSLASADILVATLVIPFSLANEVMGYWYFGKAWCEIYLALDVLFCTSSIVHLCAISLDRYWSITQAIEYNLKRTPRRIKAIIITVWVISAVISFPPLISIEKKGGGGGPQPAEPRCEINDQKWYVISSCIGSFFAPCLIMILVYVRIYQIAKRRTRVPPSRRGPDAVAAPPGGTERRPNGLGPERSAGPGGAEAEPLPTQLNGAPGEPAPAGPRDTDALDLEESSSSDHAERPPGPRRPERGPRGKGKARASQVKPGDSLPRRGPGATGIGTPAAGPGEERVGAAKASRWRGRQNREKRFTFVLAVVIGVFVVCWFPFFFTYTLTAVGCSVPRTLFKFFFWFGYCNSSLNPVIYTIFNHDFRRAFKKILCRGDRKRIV

[5] = target: T3, Corticotropin-releasing factor receptor 2 (Homo sapiens, UniProt Q13324)
T3 sequence (Q13324 whole entry): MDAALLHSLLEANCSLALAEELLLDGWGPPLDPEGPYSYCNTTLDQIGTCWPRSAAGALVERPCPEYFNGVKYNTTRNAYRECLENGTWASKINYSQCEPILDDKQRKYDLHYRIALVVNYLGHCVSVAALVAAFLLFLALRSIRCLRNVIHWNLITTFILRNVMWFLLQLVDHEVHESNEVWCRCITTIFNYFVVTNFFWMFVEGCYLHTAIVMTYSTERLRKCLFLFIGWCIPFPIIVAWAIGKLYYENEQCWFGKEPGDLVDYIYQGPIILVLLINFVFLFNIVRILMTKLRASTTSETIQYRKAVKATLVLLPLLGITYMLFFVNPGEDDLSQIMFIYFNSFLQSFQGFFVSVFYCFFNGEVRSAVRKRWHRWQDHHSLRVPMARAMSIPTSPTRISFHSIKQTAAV

[6] = target: T4, Progesterone receptor (Homo sapiens, UniProt P06401)
T4 sequence (P06401 whole entry): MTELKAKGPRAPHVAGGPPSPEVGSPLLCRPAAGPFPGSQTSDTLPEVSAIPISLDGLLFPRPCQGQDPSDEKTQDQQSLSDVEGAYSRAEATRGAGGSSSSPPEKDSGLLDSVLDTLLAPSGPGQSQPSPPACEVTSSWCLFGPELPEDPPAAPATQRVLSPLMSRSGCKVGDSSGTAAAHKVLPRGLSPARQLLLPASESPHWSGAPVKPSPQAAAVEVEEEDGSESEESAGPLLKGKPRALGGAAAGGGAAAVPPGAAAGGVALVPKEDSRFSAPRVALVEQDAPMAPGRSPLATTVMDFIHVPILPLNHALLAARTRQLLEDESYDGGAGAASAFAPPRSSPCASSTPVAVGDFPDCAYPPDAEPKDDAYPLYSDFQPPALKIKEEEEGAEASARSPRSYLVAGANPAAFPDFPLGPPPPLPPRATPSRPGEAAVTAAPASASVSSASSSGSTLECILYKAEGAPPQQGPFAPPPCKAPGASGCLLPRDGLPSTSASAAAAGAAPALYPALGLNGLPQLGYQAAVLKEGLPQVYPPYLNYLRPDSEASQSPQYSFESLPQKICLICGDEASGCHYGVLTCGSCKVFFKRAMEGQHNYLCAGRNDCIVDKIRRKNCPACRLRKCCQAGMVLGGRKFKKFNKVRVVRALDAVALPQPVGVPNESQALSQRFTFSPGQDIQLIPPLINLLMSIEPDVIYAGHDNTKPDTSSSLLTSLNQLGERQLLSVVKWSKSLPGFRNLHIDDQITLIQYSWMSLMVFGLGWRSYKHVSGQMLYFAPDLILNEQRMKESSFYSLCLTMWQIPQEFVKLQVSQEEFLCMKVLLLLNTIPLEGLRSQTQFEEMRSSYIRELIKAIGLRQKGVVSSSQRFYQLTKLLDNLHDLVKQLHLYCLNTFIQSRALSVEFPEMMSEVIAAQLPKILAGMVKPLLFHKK
Note: assay procedure not described here.

Chain of Mu-type opioid receptor (P35372 whole entry): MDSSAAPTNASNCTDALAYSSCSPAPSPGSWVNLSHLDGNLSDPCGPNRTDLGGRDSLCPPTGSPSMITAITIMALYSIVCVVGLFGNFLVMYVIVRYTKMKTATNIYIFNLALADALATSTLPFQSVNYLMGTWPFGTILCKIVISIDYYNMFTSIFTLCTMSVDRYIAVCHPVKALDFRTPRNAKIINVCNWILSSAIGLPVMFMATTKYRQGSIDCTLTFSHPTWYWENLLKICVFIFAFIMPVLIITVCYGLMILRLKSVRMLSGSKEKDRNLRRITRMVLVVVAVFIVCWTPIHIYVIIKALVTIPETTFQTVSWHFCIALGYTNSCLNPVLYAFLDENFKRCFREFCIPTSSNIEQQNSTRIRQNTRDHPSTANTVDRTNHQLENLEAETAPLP
Chain of Gamma-aminobutyric acid receptor subunit alpha-1/alpha-2/beta-2/gamma-2 (P14867 whole entry): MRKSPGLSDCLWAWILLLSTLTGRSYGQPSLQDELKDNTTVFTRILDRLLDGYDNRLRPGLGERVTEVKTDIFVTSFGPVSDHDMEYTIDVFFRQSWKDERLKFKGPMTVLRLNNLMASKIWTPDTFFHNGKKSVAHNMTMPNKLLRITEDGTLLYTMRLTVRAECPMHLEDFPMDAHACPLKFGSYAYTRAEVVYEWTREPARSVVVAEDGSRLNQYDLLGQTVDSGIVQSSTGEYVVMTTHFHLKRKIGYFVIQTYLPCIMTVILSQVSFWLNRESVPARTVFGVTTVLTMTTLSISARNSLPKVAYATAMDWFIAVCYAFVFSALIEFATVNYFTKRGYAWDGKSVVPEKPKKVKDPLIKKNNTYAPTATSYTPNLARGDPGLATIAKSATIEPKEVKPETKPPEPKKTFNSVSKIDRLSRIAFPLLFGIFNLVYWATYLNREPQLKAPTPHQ
Chain of Gamma-aminobutyric acid receptor subunit alpha-1/alpha-2/beta-2/gamma-2 (P47870 whole entry): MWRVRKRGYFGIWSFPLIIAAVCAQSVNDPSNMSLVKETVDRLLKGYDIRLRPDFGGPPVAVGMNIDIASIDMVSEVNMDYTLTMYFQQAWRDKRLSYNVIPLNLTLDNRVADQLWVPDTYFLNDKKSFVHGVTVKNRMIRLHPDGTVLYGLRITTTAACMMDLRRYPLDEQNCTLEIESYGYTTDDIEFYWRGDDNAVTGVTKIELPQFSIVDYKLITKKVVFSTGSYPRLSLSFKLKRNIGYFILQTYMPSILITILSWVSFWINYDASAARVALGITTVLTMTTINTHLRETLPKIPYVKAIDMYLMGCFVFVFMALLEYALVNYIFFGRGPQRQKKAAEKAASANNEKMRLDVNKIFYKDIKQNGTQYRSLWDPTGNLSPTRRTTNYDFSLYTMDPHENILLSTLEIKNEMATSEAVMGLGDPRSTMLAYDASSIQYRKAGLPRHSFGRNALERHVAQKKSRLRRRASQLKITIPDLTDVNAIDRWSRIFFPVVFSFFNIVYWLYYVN
Chain of Gamma-aminobutyric acid receptor subunit alpha-1/alpha-2/beta-2/gamma-2 (P18507 whole entry): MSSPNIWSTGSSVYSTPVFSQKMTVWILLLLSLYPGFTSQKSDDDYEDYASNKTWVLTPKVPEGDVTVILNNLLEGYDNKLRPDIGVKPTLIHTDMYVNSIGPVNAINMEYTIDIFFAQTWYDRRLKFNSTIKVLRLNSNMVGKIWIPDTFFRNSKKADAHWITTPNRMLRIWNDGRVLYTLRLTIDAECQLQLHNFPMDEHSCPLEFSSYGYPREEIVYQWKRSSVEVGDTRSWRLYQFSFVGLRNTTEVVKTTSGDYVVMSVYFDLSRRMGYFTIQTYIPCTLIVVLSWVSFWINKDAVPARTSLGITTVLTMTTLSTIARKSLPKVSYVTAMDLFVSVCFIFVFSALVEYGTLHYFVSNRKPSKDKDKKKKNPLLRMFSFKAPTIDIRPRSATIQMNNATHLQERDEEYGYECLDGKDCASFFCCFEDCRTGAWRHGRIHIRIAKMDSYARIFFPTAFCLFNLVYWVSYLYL
Chain of Gamma-aminobutyric acid receptor subunit alpha-1/alpha-2/beta-2/gamma-2 (P47869 whole entry): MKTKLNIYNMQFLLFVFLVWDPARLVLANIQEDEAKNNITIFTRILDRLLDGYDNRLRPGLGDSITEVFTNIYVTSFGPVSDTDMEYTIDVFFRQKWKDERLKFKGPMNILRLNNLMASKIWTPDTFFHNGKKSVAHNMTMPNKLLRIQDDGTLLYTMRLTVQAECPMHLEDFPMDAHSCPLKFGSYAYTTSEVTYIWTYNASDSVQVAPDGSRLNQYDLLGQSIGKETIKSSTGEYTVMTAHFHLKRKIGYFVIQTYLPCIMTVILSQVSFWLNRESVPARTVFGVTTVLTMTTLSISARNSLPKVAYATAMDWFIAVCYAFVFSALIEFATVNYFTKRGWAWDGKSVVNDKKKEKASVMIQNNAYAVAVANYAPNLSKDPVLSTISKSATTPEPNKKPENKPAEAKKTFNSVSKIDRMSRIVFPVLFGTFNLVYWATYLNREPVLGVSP

Structure (SMILES) | AC50 [1] [µM] | AC50 [2] [µM] | AC50 [3] [µM] | AC50 [4] [µM] | AC50 [5] [µM] | AC50 [6] [µM]
C[C@@H](NCCCc1cccc(C(F)(F)F)c1)c1cccc2ccccc12 | > 30 | > 30 | 1.9 |  |  | 
COc1ccc(CC2c3cc(OC)c(OC)cc3CC[N+]2(C)CCC(=O)OCCCCCOC(=O)CC[N+]2(C)CCc3cc(OC)c(OC)cc3C2Cc2ccc(OC)c(OC)c2)cc1OC (centres undefined) |  | > 30 | > 30 | > 30 |  | 
CCN1CCN(Cc2ccc(Nc3ncc(F)c(-c4cc(F)c5nc(C)n(C(C)C)c5c4)n3)nc2)CC1 [ABEMACICLIB] | > 30 |  |  |  |  | 
CCCN(CCC)C(=O)Cc1c(-c2ccc(Cl)cc2)nc2ccc(Cl)cn12 [ALPIDEM] | > 10 |  | > 30 | > 10 |  | 
COc1ccccc1Oc1c(NS(=O)(=O)c2ccc(C(C)(C)C)cc2)nc(-c2ncccn2)nc1OCCO [BOSENTAN] |  | > 30 |  | > 10 | > 30 | > 30
COc1cc2nccc(Oc3ccc(NC(=O)C4(C(=O)Nc5ccc(F)cc5)CC4)cc3)c2cc1OC [CABOZANTINIB] | > 30 |  |  |  |  | 
CC(C(=O)O)c1ccc2c(c1)[nH]c1ccc(Cl)cc12 (centres undefined) [CARPROFEN] |  | > 30 |  |  |  | 
COc1ccccc1OCCNCC(O)COc1cccc2[nH]c3ccccc3c12 (centres undefined) [CARVEDILOL] |  | > 30 | 5.2 | 0.189 | > 30 | > 30
O=C1CCc2cc(OCCCCc3nnnn3C3CCCCC3)ccc2N1 [CILOSTAZOL] |  | > 30 | > 30 |  |  | > 30
C[C@@H](Oc1cc(-c2cnn(C3CCNCC3)c2)cnc1N)c1c(Cl)ccc(F)c1Cl [CRIZOTINIB] | 17 |  |  |  |  | 
O=C1CN(/N=C/c2ccc(-c3ccc([N+](=O)[O-])cc3)o2)C(O)=N1 [DANTROLENE] |  | > 10 | > 30 |  |  | 
CN(C)CC[C@@H](c1ccc(Cl)cc1)c1ccccn1 [DEXCHLORPHENIRAMINE] |  | > 30 | > 30 |  |  | 
CC(C)N(CCC(C(N)=O)(c1ccccc1)c1ccccn1)C(C)C (centres undefined) [DISOPYRAMIDE] |  |  |  |  | > 30 | > 30
C[C@H]1c2cccc(O)c2C(=O)C2=C(O)[C@]3(O)C(=O)C(C(N)=O)=C(O)[C@@H](N(C)C)[C@@H]3[C@@H](O)[C@@H]21 [DOXYCYCLINE] |  |  |  | > 10 | > 30 | > 30
C[C@]12C=CC(=O)N[C@@H]1CC[C@@H]1[C@@H]2CC[C@]2(C)[C@@H](C(=O)Nc3cc(C(F)(F)F)ccc3C(F)(F)F)CC[C@@H]12 [DUTASTERIDE] |  | > 10 | > 30 |  |  | 
CN(C)CCC[C@@]1(c2ccc(F)cc2)OCc2cc(C#N)ccc21 [ESCITALOPRAM] | > 30 | > 30 |  |  |  | 
C#C[C@]1(O)CC[C@H]2[C@@H]3CCC4=CC(=O)CC[C@@H]4[C@H]3C(=C)C[C@@]21CC [ETONOGESTREL] | > 30 |  | > 30 |  |  | 
CC(C)Cc1ccc(C(C)C(=O)O)cc1 (centres undefined) [IBUPROFEN] |  | > 30 |  | > 10 | > 30 | > 30
